SMILES strings stand for the structures. pEC50, pIC50: −log10 of the molar value. Active and inactive are the calls of the source.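 Rule for the calls: active = compounds giving half or more protection of infected cells from virus-caused growth loss, again on retest; inactive = the rest.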

This assay deals with CEM cells HIV-1 protection, formazan growth assay. Kind of assay: NCI AIDS Antiviral Assay. Conditions: for pIC50: measured here: growth of uninfected CEM cells. The method, boiled down:
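Steps: treat uninfected and HIV-1-infected human CEM cells at five drug levels; quantify growth by soluble formazan; retest any compound reaching 50% protection; classify actives from the retest.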

Regarding `CCOC(=O)Cc1nc(/C(C#N)=C/c2ccco2)[nH]c(=O)c1C#N`, the result was inactive.

As for `CC1OC(n2cnc3c(=O)[nH]cnc32)C(O)C(O)C1O` (configuration not stated), the pEC50 is < 3.70 and the pIC50 is < 3.70.

For `CC(C)(C)CP(CCP(C)(C)=S)CC(C)(C)C`, the pEC50 is < 4.35 and the pIC50 was < 4.35.

With `O=C1OC(O)C(Oc2c(Cl)cccc2Cl)=C1Cl` (configuration not stated), the pEC50 is < 4.39 and the pIC50 was 4.72.

For the molecule `CC1=NOC/C1=N\Nc1ccc(C(C)=NC2C3CC4CC(C3)CC2C4)cc1` (configuration not stated), the pEC50 is < 4.56 and the pIC50 is < 4.56.

As to `COC(=O)C1=C(C)NC2=C(C(=O)CCC2)C1CCSC` (configuration not stated), the outcome was inactive.

Turning to `O=C(NCCCl)Nc1ccc(S(=O)(=O)c2ccc([N+](=O)[O-])cc2)cc1`, the pEC50 is < 3.70 and the pIC50 was 4.79.

Consider `COc1ccc(NC(=O)C(/C=N\C(=S)NNC(C)=O)=C(\C)O)cc1`, for which the pEC50 is < 3.70 and the pIC50 was < 3.70.

With `CCC1(CC2CCCN(C)C2)c2ccccc2Sc2ccccc21` (configuration not stated), the pEC50 is < 3.70 and the negative logarithm of the IC50 (pIC50) was 4.96.

For `O=C(CCC(=O)Nc1cccc(Cl)c1)CC(=O)c1ccc(Cl)cc1`, the result was inactive.

As to `C/C(O)=C(/C=N/C(=S)Nc1ccc(S(N)(=O)=O)cc1)C(=O)Nc1ccccc1C`, the pEC50 is < 3.70 and the negative logarithm of the IC50 (pIC50) is < 3.70.

With `CC(=O)/C(=C\c1cccc([N+](=O)[O-])c1)C(=O)Nc1ccccc1C`, the pEC50 is < 4.65 and the pIC50 is < 4.65.

In the case of `Cc1ccc(NC(=O)CC2Sc3ccccc3NC2=O)c(C)c1` (configuration not stated), the pEC50 is < 4.10 and the pIC50 is 4.41.

In the case of `COC(=O)c1nc2c(C)c(O)c(Oc3c(C)c(O)c(O)c([C@H](C)CCC=C(C)C)c3O)c([C@H](C)CCC=C(C)C)c2o1`, the pEC50 was < 3.70 and the pIC50 is 5.10.

In the case of `COC(=O)C1CCC(=O)N1CN(C(C)=O)c1cc(OC)ccc1OC` (configuration not stated), the pEC50 was < 3.70 and the pIC50 is < 3.70.

Take `OC(C/C(=N\N=C(/CC(O)(C(F)(F)F)C(F)(F)F)c1ccccc1)c1ccccc1)(C(F)(F)F)C(F)(F)F`: the pEC50 is < 3.70 and the pIC50 was < 3.70.

Turning to `Cn1c2cc(Cl)ccc2c2ccc3c(c21)C(=O)C=CC3=O`, the pEC50 is < 3.70 and the pIC50 is 5.38.

Regarding `O=C(N[C@H]1c2ccsc2/C(=N/O)[C@H]1O)C(F)(F)F`, the pEC50 was < 3.70 and the pIC50 was < 3.70.

As for `C1=C\SS/C=C\SS/1`, the pEC50 was < 3.70 and the negative logarithm of the IC50 (pIC50) is 4.64.

Turning to `O=c1[nH]c2cc(Cl)c(Br)cc2o1`, the pEC50 was 3.95 and the pIC50 was 3.69.

Regarding `N=c1oc2ccccc2cc1-c1nc2ccccc2[nH]1`, the result was inactive.

Consider `O=C1c2scc(-c3ccc(Cl)cc3)c2-n2cccc21`, for which the pEC50 was < 3.70 and the pIC50 is < 3.70.

Take `COc1cccc(CCCNC(=O)Cc2cc(OC)c(OC)cc2CO)c1`: the pEC50 is < 3.70 and the pIC50 is 4.84.

On to `C=C(C)C1=NC(C)(C)CC1=C(C)C`, for which the outcome was inactive.

Consider `COc1cc(N=O)c(N=O)cc1[N+](=O)[O-]`, for which the pEC50 was < 3.77 and the pIC50 was 4.82.

In the case of `N#C/C(=C1\SC(N=Nc2ccccc2)C(=O)N1c1ccccc1)c1nc2ccccc2[nH]1` (configuration not stated), the pEC50 is < 5.22 and the pIC50 is < 5.22.

`Nc1ccc2c(O)c(N=Nc3ccc(N=Nc4ccc(S(=O)(=O)O)cc4)cc3)c(S(=O)(=O)O)cc2c1N=Nc1ccc(N=Nc2ccc(S(=O)(=O)O)cc2)cc1`: the outcome was active.

As for `O=CN/C=C\c1cc(O)ccc1O`, the pEC50 was < 3.37 and the negative logarithm of the IC50 (pIC50) is 5.28.

On to `CCOC(=O)C(=CNC(=S)Nc1ccc(Cl)c(Cl)c1)C(=O)OCC`, for which the pEC50 is < 3.70 and the pIC50 is 4.46.

Regarding `O=[N+]([O-])c1ccc(C2Nc3cc(Cl)c(Cl)cc3S(=O)(=O)N2O)cc1` (configuration not stated), the pEC50 is < 4.03 and the pIC50 was 4.19.

With `Clc1ccc(C[P+](c2ccccc2)(c2ccccc2)c2ccccc2)c(Cl)c1`, the pEC50 was < 3.70 and the pIC50 is 5.83.

In the case of `FC(F)(F)C(F)(F)c1nnc(C(F)(F)C(F)(F)F)o1`, the pEC50 is < 3.70 and the pIC50 is < 3.70.

`Cc1cc(N(CCC#N)CCC#N)ccc1/C=C1\SC(=S)NC1=O`: the pEC50 is < 3.70 and the pIC50 was 4.49.

As for `CCC(C)C(NC(=O)C(N)CCCN=C(N)N)C(=O)NC(CCC(N)=O)C(=O)NC(CCCN=C(N)N)C(=O)NCC(=O)N1CCCC1C(=O)NCC(=O)NC(CCCN=C(N)N)C(=O)NC(C)C(=O)NC(Cc1ccccc1)C(=O)NC(C(=O)NC(C(=O)NC(C(=O)NCC(=O)NC(CCCCN)C(N)=O)C(C)CC)C(C)OC1OC(CO)C(O)C(O)C1NC(C)=O)C(C)C` (configuration not stated), the pEC50 was < 4.30 and the pIC50 was < 4.30.

On to `C=C[C@@H](OCOCC[Si](C)(C)C)[C@@H](CC)OC(CCCOC(=O)C(C)(C)C)OC` (some centres not stated), for which the pEC50 was < 3.70 and the pIC50 is < 3.70.

For the molecule `O=S(=O)(Cc1ccccc1)CS(=O)(=O)Cc1ccccc1`, the pEC50 is < 4.11 and the negative-log IC50 (pIC50) is < 4.11.

As for `O=C(O)C1OC12CCCCC2` (configuration not stated), the pEC50 was < 3.70 and the pIC50 was < 3.70.

Consider `CCOC(=O)C(c1c(O)c2ccccc2oc1=O)c1c(O)c2ccccc2oc1=O`, for which the pEC50 is < 3.21 and the pIC50 is 4.19.

Take `COc1ccccc1NCC(=O)Nn1c(C)nc2ccc(S(=O)(=O)Nc3ccccc3OC)cc2c1=O`: the pEC50 was < 3.70 and the pIC50 is 3.83.

On to `Cc1ccc(C2=C/C(=C/c3ccc(N(CCC#N)CCC#N)cc3)C(=O)O2)cc1C`, for which the pEC50 was < 4.88 and the negative-log IC50 (pIC50) was < 4.88.

As to `CN1CCN(CCC=C2c3ccccc3Sc3ccc(S(=O)(=O)N(C)C)cc32)CC1`, the pEC50 is < 3.70 and the pIC50 was 4.93.

For the molecule `CC(C)N(C(=O)C12C3C4C1C1C2C3C41C(N)=O)C(C)C` (configuration not stated), the pEC50 was < 3.04 and the pIC50 is < 3.04.

As to `O=C(O)c1ccc(P(=O)(O)c2ccc(C(=O)O)cc2Br)c(Br)c1`, the pEC50 was < 3.70 and the pIC50 is < 3.70.

Regarding `O=C(CCCl)Nc1c(Cl)cccc1Cl`, the outcome was inactive.

Turning to `CCc1n[nH]c(=O)n1CC`, the pEC50 is < 3.70 and the negative-log IC50 (pIC50) is < 3.70.

As for `COc1cc(CC2c3cc(OC)c(OC)cc3CCN2C)c(C(=O)O)cc1OC` (configuration not stated), the result was inactive.

As for `Oc1[nH]c2ccccc2c1N=NC(=S)N1CCCC1`, the pEC50 is < 3.70 and the pIC50 was 5.81.

Take `CC(=O)NC1C(OCC(=O)NC(C)C(=O)NC(CCC(=O)NCCCCCNc2ccc([N+](=O)[O-])c3[nH]c4ccccc4c(=O)c23)C(N)=O)C(O)C(CO)OC1(C)OCc1ccccc1` (configuration not stated): the pEC50 is < 4.00 and the pIC50 is 5.47.

`Cn1ccc2c(c1=O)C(=O)OC2(C)C`: the pEC50 was < 3.70 and the pIC50 is < 3.70.

With `CCC1C2C=CC(CC2)N1S(=O)(=O)c1ccc(C)cc1` (configuration not stated), the pEC50 is < 4.19 and the pIC50 was 4.44.

`CNC(=O)c1[nH]cnc1/N=N/N(C)N`: the pEC50 was < 3.70 and the pIC50 was 3.74.

For the molecule `O=S(=O)(O)c1cc(N=Nc2c(O)ccc3ccccc23)ccc1/C=C/c1ccc(N=Nc2c(O)ccc3ccccc23)cc1S(=O)(=O)O`, the pEC50 was < 4.30 and the pIC50 is < 4.30.

With `CC(=O)c1cccc(NC(=O)/C(=N\NC(=S)NN)C2C(=O)Nc3ccccc3S2=O)c1` (configuration not stated), the pEC50 is < 3.55 and the pIC50 is < 3.55.

For `CC(=O)O[C@H]1CC[C@@]2(C)C(=CC[C@@H]3C2CC[C@@]2(C)C3CC[C@@H]2c2nc(-c3ccccc3)cs2)C1` (some centres not stated), the pEC50 was < 4.28 and the pIC50 is < 4.28.

Turning to `O=CC(O)C(O)C(O)C(O)C(=O)NCCCCCCCCCCCCNC(=O)C(O)C(O)C(O)C(O)C=O` (configuration not stated), the pEC50 was < 3.70 and the pIC50 was < 3.70.

Regarding `CC1Cc2c([nH]c3ccccc3c2=O)O1` (configuration not stated), the pEC50 was < 2.91 and the pIC50 was 3.14.

`N#CC1=C(S)N(C2OC(CO)C(O)C(O)C2O)C(c2ccccc2)=CC1c1ccccc1` (configuration not stated): the pEC50 is < 3.70 and the pIC50 was 4.29.

`Cc1cc(NS(=O)(=O)c2ccc(NC(=O)c3ccc4[nH]c5ccccc5c(=O)c4c3)cc2)no1`: the pEC50 was < 3.70 and the pIC50 is 4.03.

Turning to `Cc1nc(N)nc(N)c1CCCCc1ccccc1`, the result was inactive.

With `CC12CCCC1C1CC=C3CC(SC4CCC5(C)C(=CCC6C7CCCC7(C)CCC65)C4)CCC3(C)C1CC2` (configuration not stated), the pEC50 is < 3.70 and the pIC50 was < 3.70.

For `O=[N+]([O-])c1ccc(S(=O)(=O)N/N=C/C=C/c2ccccc2)cc1`, the pEC50 is < 3.82 and the pIC50 is < 3.82.

Take `Clc1ccccc1C1N2CCCCC2[C@@H]2c3[nH]c4ccccc4c3CCN12` (some centres not stated): the pEC50 is < 4.30 and the pIC50 is < 4.30.

In the case of `CCOC(=O)/C(=C\c1cccc(C#N)c1)[Se]c1ccccc1`, the pEC50 was < 4.28 and the pIC50 was < 4.28.

Take `C1CNCCNCCN1`: the pEC50 was < 3.70 and the pIC50 was < 3.70.

As for `Cc1ccc(N=NC2Sc3nc4ccccc4n3C2=O)cc1` (configuration not stated), the pEC50 was < 3.70 and the pIC50 was < 3.70.

In the case of `COC(=O)C1=C(OC)C(C(=O)OC)C23CCCC12C(C(=O)OC)C(OC)C3C(=O)OC` (configuration not stated), the pEC50 was < 3.87 and the pIC50 was < 3.87.

`CC(=O)OCC1(CNc2nc(N)ncc2C#N)CC(CCc2ccccc2)C1` (configuration not stated): the pEC50 is < 3.70 and the pIC50 is 4.76.

Consider `COc1ccc(C2=NC(c3ccccc3)N3C(c4ccccc4)NC(c4ccccc4)C2C3c2ccccc2)cc1` (configuration not stated), for which the result was inactive.

As for `CNC(=O)OCCOc1ccccc1`, the pEC50 was < 3.70 and the pIC50 is < 3.70.

Take `N#Cc1nc(C2SCCCS2)oc1N`: the pEC50 was < 3.70 and the pIC50 is < 3.70.

As for `Cc1nc(/C=C2\C(=O)C=Cc3ccccc32)c(O)o1`, the pEC50 is < 3.99 and the negative-log IC50 (pIC50) was < 3.99.
